# Values of other authors as cited in patent publication US20050226908A1, “Efficacious composition of a benzimidazole, an avermectin and praziquantel and related methods of use” (Akzo Nobel N.V., priority 2004, published 2005).
# Test system: parasites
# Details: fenbendazole alone, one time treatment at 100 or 150 mg/kg; JAVMA 180, 1:53 (1982) and Am J Vet Res 39, 11:1799 (1978)
compound,measurement,value
COC(=O)Nc1nc2ccc(Sc3ccccc3)cc2[nH]1 [fenbendazole],Efficacy of one time treatment,not efficacious
